Read-outs that look alike come from different tables or passages of the source.
Tested on: human σ1 receptor and human μ-opioid receptor
Assay: μ and σ1 dual binding: human σ1 receptor radioligand assay ([3H](+)-pentazocine, transfected HEK-293 membranes) and human μ-opioid receptor radioligand assay ([3H]-DAMGO, transfected CHO-K1 membranes)
Design: key to μ and σ1 dual binding: +: Both Ki-μ and Ki-σ1>=500 nM; ++: One Ki<500 nM while the other Ki is >=500 nM; +++: Both Ki-μ and Ki-σ1<500 nM; ++++: Both Ki-μ and Ki-σ1<100 nM
[1] = one combined class for Ki-μ and Ki-σ1

## Cn1nccc1C(c1ccccc1)N1CCN(CCc2ccccn2)CC1 (stereo not drawn) [Example 1, 1-((1-Methyl-1H-pyrazol-5-yl)(phenyl)methyl)-4-(2-(pyridin-2-yl)ethyl)piperazine]
  μ and σ1 dual binding: ++

## Cn1nccc1C(c1ccccc1)N1CCN(Cc2ccccc2)CC1 (stereo not drawn) [Example 2, 1-benzyl-4-((1-methyl-1H-pyrazol-5-yl)(phenyl)methyl)piperazine]
  μ and σ1 dual binding: ++

## Cn1nccc1C(c1ccccc1)N1CCN(CCc2ccccc2)CC1 (stereo not drawn) [Example 3, 1-((1-methyl-1H-pyrazol-5-yl)(phenyl)methyl)-4-phenethylpiperazine]
  Ki: < 100 nM

## Cn1nccc1C(c1ccccn1)N1CCN(CCc2ccccc2)CC1 (stereo not drawn) [Example 4, 1-((1-methyl-1H-pyrazol-5-yl)(pyridin-2-yl)methyl)-4-phenethylpiperazine]
  μ and σ1 dual binding: ++

## Cn1nccc1C(c1cccnc1)N1CCN(CCc2ccccc2)CC1 (stereo not drawn) [Example 5, 1-((1-methyl-1H-pyrazol-5-yl)(pyridin-3-yl)methyl)-4-phenethylpiperazine]
  μ and σ1 dual binding: ++

## COc1ccccc1CCN1CCN(C(c2ccccc2)c2ccnn2C)CC1 (stereo not drawn) [Example 6, 1-(2-methoxyphenethyl)-4-((1-methyl-1H-pyrazol-5-yl)(phenyl)methyl)piperazine]
[1]
  Ki: ≥ 500 nM

## COc1cccc(C(c2ccnn2C)N2CCN(CCc3ccccc3)CC2)c1 (stereo not drawn) [Example 7, 1-((3-methoxyphenyl)(1-methyl-1H-pyrazol-5-yl)methyl)-4-phenethylpiperazine]
  Ki: < 100 nM

## COc1ccccc1C(c1ccnn1C)N1CCN(CCc2ccccc2)CC1 (stereo not drawn) [Example 8, 1-((2-methoxyphenyl)(1-methyl-1H-pyrazol-5-yl)methyl)-4-phenethylpiperazine]
  Ki: < 500 nM

## COc1ccc(C(c2ccnn2C)N2CCN(CCc3ccccc3)CC2)cc1 (stereo not drawn) [Example 9, 1-((4-methoxyphenyl)(1-methyl-1H-pyrazol-5-yl)methyl)-4-phenethylpiperazine]
  Ki: < 500 nM

## Cn1nccc1C(c1cccc(C(F)(F)F)n1)N1CCN(CCc2ccccc2)CC1 (stereo not drawn) [Example 10, 1-((1-methyl-1H-pyrazol-5-yl)(6-(trifluoromethyl)pyridin-2-yl)methyl)-4-phenethylpiperazine]
  μ and σ1 dual binding: ++

## Cn1nccc1C(c1ccc(C(F)(F)F)nc1)N1CCN(CCc2ccccc2)CC1 (stereo not drawn) [Example 11, 1-((1-methyl-1H-pyrazol-5-yl)(6-(trifluoromethyl)pyridin-3-yl)methyl)-4-phenethylpiperazine]
  μ and σ1 dual binding: ++

## Cn1nccc1C(c1ccc(F)cn1)N1CCN(CCc2ccccc2)CC1 (stereo not drawn) [Example 12, 1-((5-fluoropyridin-2-yl)(1-methyl-1H-pyrazol-5-yl)methyl)-4-phenethylpiperazine]
  Ki: < 500 nM

## Cn1nccc1C(c1cncc(F)c1)N1CCN(CCc2ccccc2)CC1 (stereo not drawn) [Example 13, 1-((5-fluoropyridin-3-yl)(1-methyl-1H-pyrazol-5-yl)methyl)-4-phenethylpiperazine]
  μ and σ1 dual binding: ++

## Cn1nccc1C(c1ccc(C(F)(F)F)cn1)N1CCN(CCc2ccccc2)CC1 (stereo not drawn) [Example 14, 1-((1-methyl-1H-pyrazol-5-yl)(5-(trifluoromethyl)pyridin-2-yl)methyl)-4-phenethylpiperazine]
  μ and σ1 dual binding: ++

## Cn1nccc1C(c1ccc(F)cn1)N1CCN(CCc2ccccn2)CC1 (stereo not drawn) [Example 15, 1-((5-fluoropyridin-2-yl)(1-methyl-1H-pyrazol-5-yl)methyl)-4-(2-(pyridin-2-yl)ethyl)piperazine]
[1]
  Ki: ≥ 500 nM

## Cn1nccc1C(c1ncccc1F)N1CCN(CCc2ccccc2)CC1 (stereo not drawn) [Example 16, 1-((3-fluoropyridin-2-yl)(1-methyl-1H-pyrazol-5-yl)methyl)-4-phenethylpiperazine]
  μ and σ1 dual binding: ++

## Cn1nccc1C(c1cccnc1C(F)(F)F)N1CCN(CCc2ccccc2)CC1 (stereo not drawn) [Example 17, 1-((1-methyl-1H-pyrazol-5-yl)(2-(trifluoromethyl)pyridin-3-yl)methyl)-4-phenethylpiperazine]
  Ki: < 500 nM

## Cn1nccc1C(c1ccc(Cl)cn1)N1CCN(CCc2ccccc2)CC1 (stereo not drawn) [Example 18, 1-((5-chloropyridin-2-yl)(1-methyl-1H-pyrazol-5-yl)methyl)-4-phenethylpiperazine]
  μ and σ1 dual binding: ++

## Cn1nccc1C(c1cnccc1C(F)(F)F)N1CCN(CCc2ccccc2)CC1 (stereo not drawn) [Example 19, 1-((1-methyl-1H-pyrazol-5-yl)(4-(trifluoromethyl)pyridin-3-yl)methyl)-4-phenethylpiperazine]
  μ and σ1 dual binding: ++

## Cn1nccc1C(c1ccncc1)N1CCN(CCc2ccccc2)CC1 (stereo not drawn) [Example 20, 1-((1-methyl-1H-pyrazol-5-yl)(pyridin-4-yl)methyl)-4-phenethylpiperazine]
  μ and σ1 dual binding: ++

## COc1cccc(CCN2CCN(C(c3ccccc3)c3ccnn3C)CC2)c1 (stereo not drawn) [Example 21, 1-(3-Methoxyphenethyl)-4-((1-methyl-1H-pyrazol-5-yl)(phenyl)methyl)piperazine]
  Ki: < 500 nM

## Cn1nccc1C(c1ccccc1)N1CCN(CCc2ccccc2F)CC1 (stereo not drawn) [Example 22, 1-(2-fluorophenethyl)-4-((1-methyl-1H-pyrazol-5-yl)(phenyl)methyl)piperazine]
  Ki: < 100 nM

## Cn1nccc1C(c1ccccc1)N1CCN(CCc2ccc(F)cc2)CC1 (stereo not drawn) [Example 23, 1-(4-fluorophenethyl)-4-((1-methyl-1H-pyrazol-5-yl)(phenyl)methyl)piperazine]
  μ and σ1 dual binding: ++

## Cn1nccc1C(c1ccccc1)N1CCN(CCc2ccc(C(F)(F)F)nc2)CC1 (stereo not drawn) [Example 24, 1-((1-methyl-1H-pyrazol-5-yl)(phenyl)methyl)-4-(2-(6-(trifluoromethyl)pyridin-3-yl)ethyl)piperazine]
[1]
  Ki: ≥ 500 nM

## Cn1nccc1C(c1ccccc1)N1CCN(CCc2csc(NC(=O)OC(C)(C)C)n2)CC1 (stereo not drawn) [Example 25, tert-butyl 4-(2-(4-((1-methyl-1H-pyrazol-5-yl)(phenyl)methyl)piperazin-1-yl)ethyl)thiazol-2-ylcarbamate]
[1]
  Ki: ≥ 500 nM

## Cn1nccc1C(c1ccc(F)cn1)N1CCN(CCc2ccccc2F)CC1 (stereo not drawn) [Example 26, 1-(2-fluorophenethyl)-4-((5-fluoropyridin-2-yl)(1-methyl-1H-pyrazol-5-yl)methyl)piperazine]
  μ and σ1 dual binding: ++

## COc1cccc(CCN2CCN(C(c3ccc(F)cn3)c3ccnn3C)CC2)c1 (stereo not drawn) [Example 27, 1-((5-fluoropyridin-2-yl)(1-methyl-1H-pyrazol-5-yl)methyl)-4-(3-methoxyphenethyl)piperazine]
  μ and σ1 dual binding: ++

## Cn1nccc1C(c1ccccc1)N1CCN(CCc2ccccc2O)CC1 (stereo not drawn) [Example 28, 2-(2-(4-((1-Methyl-1H-pyrazol-5-yl)(phenyl)methyl)piperazin-1-yl)ethyl)phenol]
  μ and σ1 dual binding: ++

## Cn1nccc1C(c1cccc(O)c1)N1CCN(CCc2ccccc2)CC1 (stereo not drawn) [Example 29, 3-((1-methyl-1H-pyrazol-5-yl)(4-phenethylpiperazin-1-yl)methyl)phenol]
  Ki: < 500 nM

## Cn1nccc1C(c1ccccc1)N1CCN(CCc2cccc(O)c2)CC1 (stereo not drawn) [Example 30, 3-(2-(4-((1-methyl-1H-pyrazol-5-yl)(phenyl)methyl)piperazin-1-yl)ethyl)phenol]
  Ki: < 100 nM

## Cn1nccc1C(c1ccc(F)cn1)N1CCN(CCc2cccc(O)c2)CC1 (stereo not drawn) [Example 31, 3-(2-(4-((5-fluoropyridin-2-yl)(1-methyl-1H-pyrazol-5-yl)methyl)piperazin-1-yl)ethyl)phenol]
  μ and σ1 dual binding: ++

## Cn1nccc1C(c1ccccc1)N1CCN(CCc2csc(N)n2)CC1 (stereo not drawn) [Example 32, 4-(2-(4-((1-Methyl-1H-pyrazol-5-yl)(phenyl)methyl)piperazin-1-yl)ethyl)thiazol-2-amine]
[1]
  Ki: ≥ 500 nM

## Cn1nccc1C(c1ccccc1)N1CCN(CCc2ncccc2F)CC1 (stereo not drawn) [Example 33, 1-(2-(3-Fluoropyridin-2-yl)ethyl)-4-((1-methyl-1H-pyrazol-5-yl)(phenyl)methyl)piperazine]
[1]
  Ki: ≥ 500 nM

## Cn1nccc1C(c1ccccc1)N1CCN(CCc2ccc(F)cn2)CC1 (stereo not drawn) [Example 34, 1-(2-(5-fluoropyridin-2-yl)ethyl)-4-((1-methyl-1H-pyrazol-5-yl)(phenyl)methyl)piperazine]
[1]
  Ki: ≥ 500 nM

## Cn1nccc1C(c1ccccc1)N1CCN(CCc2cccc(F)c2)CC1 (stereo not drawn) [Example 35, 1-(3-Fluorophenethyl)-4-((1-methyl-1H-pyrazol-5-yl)(phenyl)methyl)piperazine]
  Ki: < 500 nM

## Cn1nccc1C(c1ccccc1)N1CCN(CCc2cccnc2)CC1 (stereo not drawn) [Example 36, 1-((1-methyl-1H-pyrazol-5-yl)(phenyl)methyl)-4-(2-(pyridin-3-yl)ethyl)piperazine]
[1]
  Ki: ≥ 500 nM

## Cn1nccc1C(c1ccccc1)N1CCN(CCc2ccncc2)CC1 (stereo not drawn) [Example 37, 1-((1-methyl-1H-pyrazol-5-yl)(phenyl)methyl)-4-(2-(pyridin-4-yl)ethyl)piperazine]
  μ and σ1 dual binding: ++

## Cn1nccc1C(c1ccc(F)cn1)N1CCN(CCc2cccc(F)c2)CC1 (stereo not drawn) [Example 38, 1-(3-fluorophenethyl)-4-((5-fluoropyridin-2-yl)(1-methyl-1H-pyrazol-5-yl)methyl)piperazine]
  Ki: < 500 nM

## Cn1nccc1C(c1ccccc1)N1CCN(CC(O)c2ccccc2)CC1 (stereo not drawn) [Example 39, 2-(4-((1-Methyl-1H-pyrazol-5-yl)(phenyl)methyl)piperazin-1-yl)-1-phenylethanol]
  μ and σ1 dual binding: ++

## Cn1nccc1C(c1ccccc1)N1CCN(CCc2cccc(N)n2)CC1 (stereo not drawn) [Example 40, 6-(2-(4-((1-Methyl-1H-pyrazol-5-yl)(phenyl)methyl)piperazin-1-yl)ethyl)pyridin-2-amine]
[1]
  Ki: ≥ 500 nM

## Cn1nccc1C(c1ccccc1)N1CCN(CCc2ncccc2Cl)CC1 (stereo not drawn) [Example 41, 1-(2-(3-chloropyridin-2-yl)ethyl)-4-((1-methyl-1H-pyrazol-5-yl)(phenyl)methyl)piperazine]
  μ and σ1 dual binding: ++

## Cn1nccc1C(c1ccccc1)N1CCN(CCc2cccc(C(F)(F)F)n2)CC1 (stereo not drawn) [Example 42, 1-((1-methyl-1H-pyrazol-5-yl)(phenyl)methyl)-4-(2-(6-(trifluoromethyl)pyridin-2-yl)ethyl)piperazine]
[1]
  Ki: ≥ 500 nM
